The source of these data is ChEMBL document CHEMBL6153051, “Synthesis, biological evaluation and validation of IMB-881 derivatives as anti-Gram-negative bacterial agents” (Bioorg Med Chem, 2025).

≈ marks a conversion by molar mass, not a printed value.

In one data set the test system is Escherichia coli. The data set is described as follows: Antibacterial activity against Escherichia coli ATCC 25922 assessed as bacterial growth inhibition in presence of CAMHB medium by broth microdilution method. The format is functional. (In general: Dilution methods test growth across graded concentrations, often in twofold steps.)
The subject of a further data set is Klebsiella pneumoniae. The data set is described as follows: Antibacterial activity against Klebsiella pneumoniae ATCC […] assessed as bacterial growth inhibition in presence of CAMHB medium by broth microdilution method. The format is functional.
A further data set relates to Acinetobacter baumannii. Kind of data set: Antibacterial activity against Acinetobacter baumannii ATCC 19606 assessed as bacterial growth inhibition in presence of CAMHB medium by broth microdilution method. It counts as functional.
A short description of data set [1]: Cytotoxicity against green monkey Vero cells incubated for 48 hrs by CCK-8 assay. As to conditions: green monkey (Chlorocebus sabaeus). It counts as toxicity, cell-based. For orientation: Formazan colour is commonly taken as a measure of viable cells.
The next data set deals with Pseudomonas aeruginosa. The data set is described as follows: Antibacterial activity against Pseudomonas aeruginosa PAO1 assessed as bacterial growth inhibition in presence of CAMHB medium by broth microdilution method. The format is functional.
Data set [2] in a line: Cytotoxicity against dog MDCK cells incubated for 48 hrs by CCK-8 assay. The format is toxicity, cell-based. As to conditions: dog (Canis lupus familiaris).

Usually MIC stands for the smallest concentration in the dilution series that meets the test's criterion for growth inhibition. `Fc1cc2c(c3ncccc13)OCN(CCOc1ccccc1)C2`: the minimal inhibitory concentration (MIC) in the data set with Escherichia coli was found to be 25 µg/mL.

By IC50 is commonly meant the concentration at which inhibition is half-maximal. On to `Fc1cc2c(c3ncccc13)OCN(CCOc1ccc(Cl)cc1)C2`, for which the MIC in the data set on Klebsiella pneumoniae turned out to be 50 µg/mL; in the data set with Acinetobacter baumannii it was 12.5 µg/mL; in the data set with Escherichia coli, 12.5 µg/mL; in the data set on Pseudomonas aeruginosa, 100 µg/mL. The figures for the IC50 at 48 h in data set [1] and in data set [2] were more than 50 µg/mL and 22.3 µg/mL (≈ 62 µM), respectively.

Consider `Brc1cc2c(c3ncccc13)OCN(CCOc1ccccc1)C2`, for which, in the data set with Escherichia coli, the MIC was 25 µg/mL.

On to `Clc1cc2c(c3ncccc13)OCN(Cc1ccccc1)C2`, for which the MIC is more than 100 µg/mL in the data set on Klebsiella pneumoniae, 6.25 µg/mL with Acinetobacter baumannii, 12.5 µg/mL in the data set with Escherichia coli and 100 µg/mL with Pseudomonas aeruginosa. Besides, the IC50 at 48 h in data set [1] was more than 50 µg/mL; in data set [2], 33.8 µg/mL (≈ 109 µM).

For the molecule `Fc1cccc(CCN2COc3c(cc(F)c4cccnc34)C2)c1`, the MIC turned out to be 25 µg/mL in the data set with Klebsiella pneumoniae, 3.12 µg/mL in the data set with Acinetobacter baumannii, 3.12 µg/mL with Escherichia coli and 25 µg/mL in the data set with Pseudomonas aeruginosa. Besides, the IC50 at 48 h in data set [1] stood at 21.3 µg/mL (≈ 65.2 µM); in data set [2], 29.4 µg/mL (≈ 90.2 µM).

For `Cc1ccc(CCN2COc3c(cc(Cl)c4cccnc34)C2)cc1`, the minimum inhibitory concentration (MIC) with Escherichia coli is 50 µg/mL.

In the case of `Cc1ccc(CCN2COc3c(cc(Br)c4cccnc34)C2)cc1`, the MIC with Escherichia coli was determined as 50 µg/mL.

For the molecule `Fc1ccc(CCN2COc3c(cc(F)c4cccnc34)C2)cc1`, the minimal inhibitory concentration (MIC) turned out to be 100 µg/mL in the data set on Klebsiella pneumoniae, 12.5 µg/mL with Acinetobacter baumannii, 12.5 µg/mL in the data set on Escherichia coli and 100 µg/mL in the data set with Pseudomonas aeruginosa. Further, the values for the IC50 at 48 h in data set [1] and in data set [2] were 27.7 µg/mL (≈ 84.8 µM) and 15.8 µg/mL (≈ 48.3 µM), respectively.

With `Clc1cccc(CN2COc3c(cc(Br)c4cccnc34)C2)c1`, the minimum inhibitory concentration (MIC) with Escherichia coli was 25 µg/mL.

On to `Brc1cc2c(c3ncccc13)OCN(CCCc1ccccc1)C2`, for which the minimal inhibitory concentration (MIC) in the data set with Escherichia coli is 50 µg/mL.

For `Cc1ccc(CCN2COc3c(cc(F)c4cccnc34)C2)cc1`, the minimum inhibitory concentration (MIC) in the data set with Escherichia coli amounted to 25 µg/mL.

Consider `Fc1cc2c(c3ncccc13)OCN(Cc1cccc(Cl)c1)C2`, for which the minimal inhibitory concentration (MIC) was determined as 50 µg/mL in the data set on Klebsiella pneumoniae, 6.25 µg/mL in the data set on Acinetobacter baumannii, 6.25 µg/mL with Escherichia coli and 50 µg/mL in the data set with Pseudomonas aeruginosa. The half-maximal inhibitory concentration (IC50) at 48 h turned out to be 34 µg/mL (≈ 103 µM) in data set [1] and 19 µg/mL (≈ 57.7 µM) in data set [2].

Turning to `FC(F)(F)Oc1ccc(CN2COc3c(cc(Cl)c4cccnc34)C2)cc1`, the MIC in the data set on Escherichia coli worked out at 50 µg/mL.

With `Fc1ccc(CN2COc3c(cc(F)c4cccnc34)C2)c(F)c1`, in the data set on Escherichia coli, the minimal inhibitory concentration (MIC) amounted to 25 µg/mL.

As to `Fc1cc2c(c3ncccc13)OCN(Cc1ccc(OC(F)(F)F)cc1)C2`, in the data set with Escherichia coli, the MIC was 25 µg/mL.

As to `Fc1cc2c(c3ncccc13)OCN(CCCCc1ccccc1)C2`, the minimal inhibitory concentration (MIC) with Klebsiella pneumoniae is more than 100 µg/mL; in the data set on Acinetobacter baumannii, 6.25 µg/mL; in the data set with Escherichia coli, 6.25 µg/mL; in the data set with Pseudomonas aeruginosa, 100 µg/mL. Also, the IC50 at 48 h in data set [1] turned out to be 36.1 µg/mL (≈ 107 µM); in data set [2], 29.3 µg/mL (≈ 87.1 µM).

Consider `Fc1cc2c(c3ncccc13)OCN(CCCc1ccccc1)C2`, for which the minimal inhibitory concentration (MIC) in the data set with Klebsiella pneumoniae was 50 µg/mL; in the data set on Acinetobacter baumannii, 6.25 µg/mL; in the data set on Escherichia coli it was 6.25 µg/mL; in the data set on Pseudomonas aeruginosa, 100 µg/mL. For the same molecule, the figures for the half-maximal inhibitory concentration (IC50) at 48 h in data set [1] and in data set [2] were 13.6 µg/mL (≈ 42.1 µM) and 26 µg/mL (≈ 80.5 µM), respectively.

For the molecule `Brc1cc2c(c3ncccc13)OCN(CCCCc1ccccc1)C2`, the minimal inhibitory concentration (MIC) with Escherichia coli worked out at 25 µg/mL.

`Fc1cc(CN2COc3c(cc(F)c4cccnc34)C2)cc(F)c1F`: in the data set on Escherichia coli, the MIC turned out to be 25 µg/mL.

On to `Clc1ccc(CN2COc3c(cc(Br)c4cccnc34)C2)cc1`, for which, in the data set with Escherichia coli, the MIC is more than 100 µg/mL.

For the molecule `Clc1ccc(CCN2COc3c(cc(Cl)c4cccnc34)C2)cc1`, the MIC in the data set with Klebsiella pneumoniae was more than 100 µg/mL; in the data set with Acinetobacter baumannii, 6.12 µg/mL; in the data set with Escherichia coli, 12.5 µg/mL; with Pseudomonas aeruginosa, 100 µg/mL. Moreover, the IC50 at 48 h in data set [1] was more than 50 µg/mL; in data set [2], 39.7 µg/mL (≈ 110 µM).

Regarding `Clc1ccc(OCCN2COc3c(cc(Cl)c4cccnc34)C2)cc1`, the minimum inhibitory concentration (MIC) in the data set on Escherichia coli is 25 µg/mL.

As for `Clc1cc2c(c3ncccc13)OCN(CCc1ccc(Br)cc1)C2`, the MIC was more than 100 µg/mL in the data set on Klebsiella pneumoniae, 6.25 µg/mL in the data set with Acinetobacter baumannii, 12.5 µg/mL in the data set with Escherichia coli and 100 µg/mL with Pseudomonas aeruginosa. For the same molecule, the IC50 at 48 h in data set [1] was more than 50 µg/mL; in data set [2], 35.2 µg/mL (≈ 87.3 µM).

With `COc1ccc(CCN2COc3c(cc(Cl)c4cccnc34)C2)cc1OC`, the minimal inhibitory concentration (MIC) with Escherichia coli was found to be 25 µg/mL.

Take `Oc1ccc(CCN2COc3c(cc(F)c4cccnc34)C2)cc1`: the MIC in the data set on Escherichia coli was more than 100 µg/mL.

On to `Fc1ccc(CN2COc3c(cc(Br)c4cccnc34)C2)c(F)c1`, for which, in the data set with Escherichia coli, the MIC came out at 25 µg/mL.

Turning to `Clc1cc2c(c3ncccc13)OCN(CCCCc1ccccc1)C2`, the MIC in the data set on Klebsiella pneumoniae is 100 µg/mL; in the data set with Acinetobacter baumannii, 3.12 µg/mL; in the data set with Escherichia coli, 12.5 µg/mL; in the data set with Pseudomonas aeruginosa, 100 µg/mL. Also, the concentration for half-maximal inhibition (IC50) at 48 h was more than 50 µg/mL in data set [1] and 33.8 µg/mL (≈ 95.9 µM) in data set [2].

For `Fc1cc(CN2COc3c(cc(Cl)c4cccnc34)C2)cc(F)c1F`, in the data set on Escherichia coli, the MIC was determined as 25 µg/mL.

Consider `COc1ccc(CCN2COc3c(cc(Br)c4cccnc34)C2)cc1OC`, for which, in the data set on Escherichia coli, the MIC was more than 100 µg/mL.

For `Clc1cc2c(c3ncccc13)OCN(CCOc1ccccc1)C2`, the minimal inhibitory concentration (MIC) in the data set on Escherichia coli came to 25 µg/mL.

Regarding `Clc1cccc(CN2COc3c(cc(Cl)c4cccnc34)C2)c1`, the MIC was found to be 50 µg/mL with Klebsiella pneumoniae, 12.5 µg/mL with Acinetobacter baumannii, 12.5 µg/mL with Escherichia coli and 100 µg/mL in the data set with Pseudomonas aeruginosa. In addition, the figures for the half-maximal inhibitory concentration (IC50) at 48 h in data set [1] and in data set [2] were more than 50 µg/mL and 23.9 µg/mL (≈ 69.1 µM), respectively.

In the case of `Fc1cc2c(c3ncccc13)OCN(Cc1ccc(C(F)(F)F)cc1)C2`, the minimum inhibitory concentration (MIC) in the data set on Klebsiella pneumoniae worked out at 100 µg/mL; in the data set with Acinetobacter baumannii, 12.5 µg/mL; with Escherichia coli, 12.5 µg/mL; in the data set with Pseudomonas aeruginosa, 100 µg/mL. The IC50 at 48 h in data set [1] was 46.1 µg/mL (≈ 127 µM); in data set [2], 7.93 µg/mL (≈ 21.9 µM).

`FC(F)(F)Oc1ccc(CN2COc3c(cc(Br)c4cccnc34)C2)cc1`: the MIC in the data set with Escherichia coli is more than 100 µg/mL.

On to `FC(F)(F)c1ccc(CN2COc3c(cc(Cl)c4cccnc34)C2)cc1`, for which the MIC with Escherichia coli amounted to 25 µg/mL.

For `Fc1ccc(CCN2COc3c(cc(Br)c4cccnc34)C2)cc1`, the minimum inhibitory concentration (MIC) in the data set on Escherichia coli was found to be 25 µg/mL.

With `Clc1cc2c(c3ncccc13)OCN(CCc1cccc(Br)c1)C2`, in the data set with Escherichia coli, the minimal inhibitory concentration (MIC) was more than 100 µg/mL.

For the molecule `Brc1ccc(CCN2COc3c(cc(Br)c4cccnc34)C2)cc1`, the minimum inhibitory concentration (MIC) in the data set on Escherichia coli was found to be 50 µg/mL.

For the molecule `Brc1cc2c(c3ncccc13)OCN(CCc1ccccc1)C2`, the minimal inhibitory concentration (MIC) in the data set on Escherichia coli came to 25 µg/mL.

For `FC(F)(F)c1ccc(CN2COc3c(cc(Br)c4cccnc34)C2)cc1`, the minimal inhibitory concentration (MIC) in the data set on Escherichia coli was 50 µg/mL.

For the molecule `Fc1cc(CN2COc3c(cc(Br)c4cccnc34)C2)cc(F)c1F`, in the data set on Escherichia coli, the MIC is 25 µg/mL.

For the molecule `Clc1ccc(OCCN2COc3c(cc(Br)c4cccnc34)C2)cc1`, the minimum inhibitory concentration (MIC) in the data set on Escherichia coli is 50 µg/mL.

For the molecule `Fc1cc2c(c3ncccc13)OCN(CCc1ccccc1)C2`, the MIC amounted to 50 µg/mL in the data set on Klebsiella pneumoniae, 6.25 µg/mL in the data set on Acinetobacter baumannii, 6.25 µg/mL with Escherichia coli and 100 µg/mL in the data set on Pseudomonas aeruginosa. Besides, the IC50 at 48 h in data set [1] came to 14.7 µg/mL (≈ 47.8 µM); in data set [2], 8.97 µg/mL (≈ 29.1 µM).

As to `Fc1cc2c(c3ncccc13)OCN(Cc1ccccc1)C2`, the MIC in the data set on Escherichia coli was 25 µg/mL.

Consider `Fc1ccc(CCN2COc3c(cc(Cl)c4cccnc34)C2)cc1`, for which the minimum inhibitory concentration (MIC) was 50 µg/mL in the data set with Klebsiella pneumoniae, 6.25 µg/mL in the data set with Acinetobacter baumannii, 12.5 µg/mL with Escherichia coli and 100 µg/mL with Pseudomonas aeruginosa. Further, the half-inhibitory concentration (IC50) at 48 h in data set [1] stood at 40.1 µg/mL (≈ 117 µM); in data set [2], 17.8 µg/mL (≈ 52.1 µM).

Regarding `Brc1cc2c(c3ncccc13)OCN(Cc1ccccc1)C2`, the MIC with Escherichia coli was 25 µg/mL.
